Experiments:
[1] = dynamic vapour sorption (DVS): water absorption or loss as a function of relative humidity; format: physicochemical; conditions: for change in mass in % (sorption) / change in mass in % (desorption): 25° C., 9.5 mg sample, 4 hours; for change in mass in % (sorption): cycle 0-95%; for change in mass in % (desorption): cycle 40-0
Source text: A clear characterisation of this property is achieved by means of isothermal measurements over predetermined time intervals and predetermined relative humidity using dynamic vapour sorption (DVS from the company Surface Measurement Systems LTD, Marlow, Buckinghamshire, UK). […] The following cycles of changes in relative humidity are shown: 40-0; 0-95% relative humidity: The measurement error of this sorption method based on thermogravimetry is about 0.1%.

[2] = hygroscopicity of the drug substance (statement); format: physicochemical; conditions: background statement

COCCCOc1cc(C[C@@H](C[C@H](N)[C@@H](O)C[C@H](C(=O)NCC(C)(C)C(N)=O)C(C)C)C(C)C)ccc1OC.O=S(=O)(O)O [hydrogen sulfate salt of aliskiren]
water absorption or loss ([1]; above 40% relative humidity): significant water absorption or loss
water uptake compared with the hemifumarate ([1]; below 40% relative humidity): does not take up as much water as the hemifumarate
change in mass in % (sorption) ([1]; relative humidity 0%): 0.00%
change in mass in % (desorption) ([1]; relative humidity 0%): 0.00%
change in mass in % (sorption) ([1]; relative humidity 10%): 0.46%
change in mass in % (desorption) ([1]; relative humidity 10%): 0.88%
change in mass in % (sorption) ([1]; relative humidity 20%): 0.84%
change in mass in % (desorption) ([1]; relative humidity 20%): 1.25%
change in mass in % (sorption) ([1]; relative humidity 30%): 1.31%
change in mass in % (desorption) ([1]; relative humidity 30%): 1.67%
change in mass in % (sorption) ([1]; relative humidity 40%): 1.98%
change in mass in % (desorption) ([1]; relative humidity 40%): 2.20%
change in mass in % (sorption) ([1]; relative humidity 50%): 3.39%
change in mass in % (sorption) ([1]; relative humidity 60%): 7.07%
change in mass in % (sorption) ([1]; relative humidity 70%): 8.88%
change in mass in % (sorption) ([1]; relative humidity 80%): 13.43%
change in mass in % (sorption) ([1]; relative humidity 90%): 25.83%
change in mass in % (sorption) ([1]; relative humidity 95%): 40.62%

COCCCOc1cc(C[C@@H](C[C@H](N)[C@@H](O)C[C@H](C(=O)NCC(C)(C)C(N)=O)C(C)C)C(C)C)ccc1OC [aliskiren, 2(S),4(S),5(S),7(S)—N-(3-amino-2,2-dimethyl-3-oxopropyl)-2,7-di(1-methylethyl)-4-hydroxy-5-amino-8-[4-methoxy-3-(3-methoxy-propoxy)phenyl]-octanamide]
hygroscopicity [2]: highly hygroscopic

Source: patent publication US7872153B2, “Salt of aliskiren with sulfuric acid” (Novartis AG, priority 2006, dated 2011)
